Assay results as given in PMC8967206, “Pyrimidine-5-carbonitrile based potential anticancer agents as apoptosis inducers through PI3K/AKT axis inhibition in leukaemia K562” (Journal of Enzyme Inhibition and Medicinal Chemistry, 2022).
Like-named read-outs stand apart in the source and are kept apart here.

Experiments:
[1] = tested on: leukaemia (K562) cell line; experiment: MTT colorimetric cytotoxicity assay, K562; assay type: cell-based; details: Homo sapiens, 48 h incubation, mean ± SD of three experiments
Method: (§2) Cytotoxicity of our sixteen innovative compounds 4(a–e), 5(a–d), 6, and 7(a–f) together with control was assessed by means of in-vitro toxicology assay kit, MTT based (Sigma Aldrich, St. Louis, MO) against MCF-7 and K562 cell lines incubated in 96 microwell plates and proceeded as reported[32]^,[33]. MTT (3-[4,5-dimethylthiazol-2-yl]-2,5-diphenyl tetrazolium bromide) method measures the activity of living cells through mitochondrial dehydrogenase. Mitochondrial dehydrogenases of viable cells cleave the tetrazolium ring, giving purple formazan crystals that are dissolved in acidified isopropanol and the resulting purple solution is measured spectrophotometrically. The change in cell number is proportional to the intensity of purple colour produced and the degree of cytotoxicity caused by the test compounds. The absorbance at a wavelength of 570 nm was measured using (ROBONIK P2000 spectrophotometer) and the background absorbance of multi-well plates at 690 nm then the absorbance at 690 nm was subtracted from the 570 nm measurement. Five concentrations from each test compound ranging from (0.04 to 100 µM) were prepared and the experiments were done in triplicate.

[2] = tested on: breast cancer (MCF-7) cell line; experiment: MTT colorimetric cytotoxicity assay, MCF-7; assay type: cell-based; details: Homo sapiens, MCF7, 48 h incubation, mean ± SD of three experiments
Method: as §2

[3] = tested on: normal fibroblast cell line (WI-38); experiment: Cytotoxicity on normal fibroblast cell line; assay type: cell-based; details: WI-38 versus K562
[4] = Cytotoxicity on normal fibroblast cell line; assay type: cell-based; details: human, WI-38 normal fibroblast cells; non-tumorigenic cell line
PI3Kγ = molecular target: T1, PI3Kγ (Homo sapiens, UniProt P48736); experiment: PI3K enzyme inhibition assay (ADP-Glo), PI3Kγ; assay type: biochemical; details: mean ± SD of three experiments
T1 construct: purchased BPS Bioscience, San Diego, CA
Method: (§3) The inhibition activities of 4d and 7f against PI3K enzyme were detected using PI3K assay kits and ADP-Glo kinase assay as a detection buffer (BPS Bioscience, San Diego, CA). According to the manufacturer’s instructions, PI3K enzyme was diluted with 2.5x Kinase assay buffer to obtain 4 ng/µl. The assay was performed in 96 well plates as follows: 5 µl of PIP2 substrate was added to each well followed by 5 ul from each inhibitor except for the positive control and blanks where the inhibitor buffers were added instead. Of 5 ul of 12.5 µM ATP was added. The reactions were initiated by adding 10 µl of diluted PI3K enzyme to the positive control and inhibitors wells. Plate was carefully shaked and was incubated at 30 °C for 40 min. After the 40 min incubation, 25 µl of ADP-Glo reagent were added to each well. The plate was covered with aluminium foil and incubated at room temperature for another 45 min. Of 50 µl of Kinase Detection reagent was added to each well. Plate was covered with aluminium foil and incubated at room temperature for extra 30 min. Luminescence was measured using microplate reader. Four concentrations from the two tested compounds ranged from (0.1 to 100 µM) were prepared and the experiment was repeated in triplicate. […] IC50 values were calculated using dose-response curves and linear regression equation.

PI3Kδ = molecular target: T2, PI3Kδ (Homo sapiens, UniProt O00329); experiment: PI3K enzyme inhibition assay (ADP-Glo), PI3Kδ; assay type: biochemical; details: mean ± SD of three experiments
T2 construct: purchased BPS Bioscience, San Diego, CA
Method: as §3

Cyclin D1 = experiment: Western blot, Cyclin D1 expression in K562; assay type: cell-based; details: K562, 48 h; control 0.849
Method: (§1) K562 cells were treated with the most promising compound (7f), for 48 h. Protein from control and treated cells was harvested and the concentration was measured via Bradford protein assay (Bio-Rad, Hercules, CA). The samples were loaded and separated by sodium dodecyl sulphate (SDS)-polyacrylamide gel electrophoresis and then transferred onto a polyvinylidene difluoride (PVDF) membrane. Western blot analysis was performed according to previously described.

p-AKT = experiment: Western blot, p-AKT expression in K562; assay type: cell-based; details: K562, 48 h; control 0.692
Method: as §1

K562 cells [5] = experiment: Cell cycle analysis (PI flow cytometry); assay type: cell-based
Method: Cell cycle analysis was determined by propidium iodide (PI) flow cytometry kit/BD. K562 cells were treated by compound 7f at its IC50 concentration. Then cells were washed in PBS, fixed in cold 70% ethanol for 30 min, washed twice in PBS, and centrifuged to remove supernatant, after that, cells were treated with 0.1 mg/ml ribonuclease, stained with 0.05 mg/ml PI. The results were analysed by flow cytometry using FACS calibre and cell cycle distribution were calculated and accomplished as reported[26]^,[34]^,[35].
As reported in the literature, inhibition of PI3K/AKT pathway affects the cell survival and proliferation[8]^,[9]. Thus, to investigate the effect of compound 7f in PI3K/Akt dual inhibition on cell cycle progression, cell cycle analysis was performed by flowcytometric analysis as reported[34]^,[35] on K562 cells treated with compound 7f. The outcomes presented in Table 4 indicated the interference with the cell cycle distribution, following 7f treatment, where there was a marked increase in the cells in pre-G1 phase by nearly 17-fold as compared to the control.

AKT = experiment: Western blot, AKT expression in K562; assay type: cell-based; details: K562, 48 h; control 0.744
Method: as §1

NFkb = experiment: Western blot, NFkb expression in K562; assay type: cell-based; details: K562, 48 h; control 0.719
Method: as §1

[6] = In-vivo acute toxicity study; details: rat, 2 g/kg, female rats, po, observed 14 d, read-out: median lethal dose (LD50)
Method: Five female rats (180–200 g) were used in this test. The animals were fasted for 24 h prior to administration of the test compound. The compound was administered in a dose of 2 g/kg body weight, po . Animals are observed individually and the mortalities were recorded at least once during the first 30 min after dosing, periodically during the first 24 h and daily afterwards, for a total of 14 d[40]. All animals received humane care and experimental procedures were carried out in strict accordance with the health and care guidelines for experimental animals. All experimental operations performed on rats were approved by the Animal Experiment Ethics Committee of Heliopolis University (Approval number HU.REC.A0.23-2021).
The toxicological profile of the most promising synthesised anticancer compound 7f was evaluated in female rats using the reported method in OECD guidelines. […]

p-PI3K = experiment: Western blot, p-PI3K expression in K562; assay type: cell-based; details: K562, 48 h; control 0.639
Method: as §1

K562 cells [7] = experiment: Annexin-V-FITC apoptosis assay; assay type: cell-based; details: K562, 48 h
Method: Apoptosis induction was assayed by staining K562 cells with Annexin-V (fluorescein isothiocyanate) and the counterstaining PI using the Annexin-V-FITC/PI apoptosis detection kit (BD Biosciences, San Diego, CA) according to the manufacturer’s instructions. Cells were exposed to the tested compound for 48 h. After that, the cells were collected by trypsinisation and 0.5 × 10^6 cells and washed twice with phosphate-buffered saline (PBS) followed by staining with 5 µl Annexin-V-FITC and 5 µl PI in 1 × binding buffer for 15 min at room temperature in the dark. FACS Calibre flow cytometer (BD Biosciences, San Diego, CA)[26]^,[36]^,[37] was used for analyses.
Data of the current research highlighted that treating Leukaemia K562 cells for 48 h with the compound 7f caused an increase in the percentage of Annexin-V positive apoptotic cells both in the early and late stage which represents a total significant 17-fold increase compared to the control.

PI3K = experiment: Western blot, PI3K expression in K562; assay type: cell-based; details: K562, 48 h; control 0.881
Method: as §1

AKT-1 = AKT-1 (Homo sapiens, UniProt P31749); experiment: AKT enzyme inhibition assay (ELISA, cell lysates); assay type: biochemical; details: mean ± SD of three experiments
Method: In brief, cell lysates were collected after treatment with the tested compounds using lysis buffer and centrifuged at 13,000 rpm for 15 min to obtain the cytosolic fraction. Samples were soaked with the kinase diluted buffer and the reaction was initiated by adding 10 µl of diluted ATP to each well, except blanks. Plate was incubated at 30 °C for up to 90 min covered with an adhesive plate sealer with gentle, shaking every 20 min. The reaction was stopped by emptying contents of each well. Of 40 µl of the phospho-specific substrate antibody was added except blank then incubated incubate at room temperature for 60 min, with shaking every 20 min. The liquid was aspirated and the wells washed three times with 1X washing buffer. After the last wash, liquid was aspirated and 40 µl of the diluted Anti-Rabbit IgG: HRP conjugate was added except blank, and incubated at room temperature for 30 min with shaking every 10 min. Plate was washed as described before. Of 60 µl of the TMB Substrate was added to each well and incubated at room temperature for 30–60 min. The reaction was stopped by adding 20 µl of the stop solution to each well. Absorbance was measured at 450 nm. Four concentrations from the tested compounds were prepared ranged from 0.1 to 100 µM and the assay was done in triplicates. […] LY2780301 compound was used as the positive control.

[8] = parameters: method as in PMID 32659486; details: printed in Figure 4, target not given; cited from earlier work
[9] = K562, treated at IC50 concentration

T2 sequence (O00329 whole entry): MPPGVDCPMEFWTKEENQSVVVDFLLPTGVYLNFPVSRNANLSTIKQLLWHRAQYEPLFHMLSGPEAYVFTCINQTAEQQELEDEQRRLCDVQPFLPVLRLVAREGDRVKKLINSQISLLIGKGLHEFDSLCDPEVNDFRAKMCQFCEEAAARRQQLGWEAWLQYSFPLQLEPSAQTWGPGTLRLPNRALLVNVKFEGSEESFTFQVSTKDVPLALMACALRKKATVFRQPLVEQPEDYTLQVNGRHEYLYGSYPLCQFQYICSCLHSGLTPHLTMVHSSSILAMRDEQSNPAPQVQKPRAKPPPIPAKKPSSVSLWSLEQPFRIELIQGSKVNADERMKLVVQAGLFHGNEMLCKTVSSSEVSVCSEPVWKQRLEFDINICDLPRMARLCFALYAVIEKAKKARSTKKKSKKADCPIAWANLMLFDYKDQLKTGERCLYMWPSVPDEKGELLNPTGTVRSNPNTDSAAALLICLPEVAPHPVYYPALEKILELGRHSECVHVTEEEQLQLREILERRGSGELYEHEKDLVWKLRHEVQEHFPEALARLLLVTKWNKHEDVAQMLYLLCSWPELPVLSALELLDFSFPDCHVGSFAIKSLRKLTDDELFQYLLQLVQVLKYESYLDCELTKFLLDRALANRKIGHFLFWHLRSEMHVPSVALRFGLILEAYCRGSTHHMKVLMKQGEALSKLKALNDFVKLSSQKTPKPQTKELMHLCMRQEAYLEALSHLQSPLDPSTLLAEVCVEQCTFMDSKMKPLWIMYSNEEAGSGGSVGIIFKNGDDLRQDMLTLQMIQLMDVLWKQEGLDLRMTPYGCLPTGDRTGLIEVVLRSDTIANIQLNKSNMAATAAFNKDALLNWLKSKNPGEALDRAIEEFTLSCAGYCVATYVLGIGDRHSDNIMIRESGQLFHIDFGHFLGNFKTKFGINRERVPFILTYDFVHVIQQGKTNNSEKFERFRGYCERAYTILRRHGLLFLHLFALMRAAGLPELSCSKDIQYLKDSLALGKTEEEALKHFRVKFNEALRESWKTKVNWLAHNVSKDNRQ
T2 sequence (P27986 whole entry partner): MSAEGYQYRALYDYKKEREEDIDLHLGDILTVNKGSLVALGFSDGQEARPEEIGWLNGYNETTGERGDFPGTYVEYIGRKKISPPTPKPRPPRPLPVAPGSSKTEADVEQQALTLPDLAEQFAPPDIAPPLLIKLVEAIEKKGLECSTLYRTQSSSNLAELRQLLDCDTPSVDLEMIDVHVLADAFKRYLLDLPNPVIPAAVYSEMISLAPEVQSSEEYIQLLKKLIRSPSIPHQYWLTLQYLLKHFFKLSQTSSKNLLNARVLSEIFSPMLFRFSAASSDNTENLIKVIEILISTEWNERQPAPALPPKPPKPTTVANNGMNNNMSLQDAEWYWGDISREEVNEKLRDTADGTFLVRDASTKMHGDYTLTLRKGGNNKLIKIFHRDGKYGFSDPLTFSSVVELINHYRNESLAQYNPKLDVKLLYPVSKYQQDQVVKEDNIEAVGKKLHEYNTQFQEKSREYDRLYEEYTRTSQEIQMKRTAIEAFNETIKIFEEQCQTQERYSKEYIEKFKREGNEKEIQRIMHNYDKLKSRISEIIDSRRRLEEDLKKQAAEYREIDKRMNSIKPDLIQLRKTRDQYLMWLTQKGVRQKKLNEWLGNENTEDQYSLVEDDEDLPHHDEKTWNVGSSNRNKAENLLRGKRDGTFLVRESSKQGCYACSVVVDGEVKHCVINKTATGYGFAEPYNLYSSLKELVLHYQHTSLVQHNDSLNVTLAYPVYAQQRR
T1 sequence (P48736 whole entry): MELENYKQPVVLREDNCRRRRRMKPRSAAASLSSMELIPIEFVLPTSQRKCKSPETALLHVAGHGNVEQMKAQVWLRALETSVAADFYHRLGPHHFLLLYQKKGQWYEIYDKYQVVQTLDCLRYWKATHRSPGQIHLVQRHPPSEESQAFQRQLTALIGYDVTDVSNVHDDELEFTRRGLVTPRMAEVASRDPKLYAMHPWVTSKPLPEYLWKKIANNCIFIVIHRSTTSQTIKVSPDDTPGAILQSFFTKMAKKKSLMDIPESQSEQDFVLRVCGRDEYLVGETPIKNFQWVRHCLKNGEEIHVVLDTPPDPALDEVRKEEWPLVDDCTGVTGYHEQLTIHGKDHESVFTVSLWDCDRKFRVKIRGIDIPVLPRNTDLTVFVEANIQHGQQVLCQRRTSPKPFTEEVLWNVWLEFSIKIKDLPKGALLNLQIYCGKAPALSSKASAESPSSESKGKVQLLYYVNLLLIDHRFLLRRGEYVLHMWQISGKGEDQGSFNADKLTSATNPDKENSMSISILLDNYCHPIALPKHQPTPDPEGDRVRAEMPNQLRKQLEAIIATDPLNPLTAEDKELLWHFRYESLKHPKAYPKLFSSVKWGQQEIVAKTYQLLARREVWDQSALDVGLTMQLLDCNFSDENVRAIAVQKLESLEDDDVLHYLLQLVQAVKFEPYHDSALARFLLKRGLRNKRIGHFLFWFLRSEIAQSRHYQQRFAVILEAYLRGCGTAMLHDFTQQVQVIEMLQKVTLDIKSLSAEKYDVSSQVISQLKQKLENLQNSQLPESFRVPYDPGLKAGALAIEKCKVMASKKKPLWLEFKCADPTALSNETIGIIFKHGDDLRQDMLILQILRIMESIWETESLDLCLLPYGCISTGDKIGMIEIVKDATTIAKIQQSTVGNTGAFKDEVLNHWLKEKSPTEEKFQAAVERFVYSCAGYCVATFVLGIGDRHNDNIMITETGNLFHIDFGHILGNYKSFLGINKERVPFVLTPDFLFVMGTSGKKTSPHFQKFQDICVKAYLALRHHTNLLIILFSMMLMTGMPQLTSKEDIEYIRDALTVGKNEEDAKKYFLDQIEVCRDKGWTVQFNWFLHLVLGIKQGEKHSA
Sequence of AKT-1 (P31749 whole entry): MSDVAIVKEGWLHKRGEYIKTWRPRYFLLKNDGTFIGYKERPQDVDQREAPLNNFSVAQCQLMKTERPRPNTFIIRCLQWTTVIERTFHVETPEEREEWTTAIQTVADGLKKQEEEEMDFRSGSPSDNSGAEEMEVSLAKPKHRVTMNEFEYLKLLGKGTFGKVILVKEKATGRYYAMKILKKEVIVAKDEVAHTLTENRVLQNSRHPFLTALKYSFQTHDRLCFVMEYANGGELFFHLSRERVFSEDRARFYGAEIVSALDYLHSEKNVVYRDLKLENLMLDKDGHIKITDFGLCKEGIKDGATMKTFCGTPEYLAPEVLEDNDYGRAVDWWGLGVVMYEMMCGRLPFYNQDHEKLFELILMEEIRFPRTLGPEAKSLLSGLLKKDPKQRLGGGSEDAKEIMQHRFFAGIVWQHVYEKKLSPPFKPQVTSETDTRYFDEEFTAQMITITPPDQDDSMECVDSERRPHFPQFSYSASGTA

COc1ccc(-c2nc(SC)nc(N3CCNCC3)c2C#N)cc1 [4a, 4-(4-Methoxyphenyl)-2-(methylthio)-6-(piperazin-1-yl)pyrimidine-5-carbonitrile]
IC50 [1]: 7.97 ± 0.38 µM | IC50 [2]: 2.54 ± 0.14 µM

COc1ccc(-c2nc(SC)nc(N3CCN(C)CC3)c2C#N)cc1 [4b, 4-(4-Methoxyphenyl)-6-(4-methylpiperazin-1-yl)-2-(methylthio)pyrimidine-5-carbonitrile]
IC50 [1]: 93.6 ± 4.44 µM | IC50 [2]: 56.3 ± 3.06 µM

COc1ccc(-c2nc(SC)nc(N3CCN(c4ccccc4)CC3)c2C#N)cc1 [4c, 4-(4-Methoxyphenyl)-2-(methylthio)-6-(4-phenylpiperazin-1-yl)pyrimidine-5-carbonitrile]
IC50 [1]: 3.86 ± 0.18 µM | IC50 [2]: 6.64 ± 0.36 µM

COc1ccc(-c2nc(SC)nc(N3CCN(c4ccccc4F)CC3)c2C#N)cc1 [4d, 4-(4-(2-Fluorophenyl)piperazin-1-yl)-6-(4-methoxyphenyl)-2-(methylthio)pyrimidine-5-carbonitrile]
melting point: 142 to 144 °C | SI (selectivity index) [3]: 109.72 | IC50 [4]: 116 ± 7.03 µM | IC50 (PI3Kγ): 35.1 ± 1.82 µM | IC50 [1]: 1.06 ± 0.05 µM | IC50 (PI3Kδ): 23.9 ± 1.2 µM | IC50 [2]: 0.8 ± 0.25 µM

COc1ccc(-c2nc(SC)nc(N3CCN(c4ccccc4OC)CC3)c2C#N)cc1 [4e, 4-(4-Methoxyphenyl)-6-(4-(2-methoxyphenyl)piperazin-1-yl)-2-(methylthio)pyrimidine-5-carbonitrile]
melting point: 170 to 172 °C | IC50 [1]: 34.8 ± 1.65 µM | IC50 [2]: 15.6 ± 0.85 µM

COc1ccc(-c2nc(SC)nc(Nc3ccc(C)cc3)c2C#N)cc1 [5a, 4-(4-Methoxyphenyl)-2-(methylthio)-6-(p-tolylamino)pyrimidine-5-carbonitrile]
melting point: 270 to 272 °C | IC50 [1]: 26.3 ± 1.25 µM | IC50 [2]: 21.3 ± 1.16 µM

COc1ccc(Nc2nc(SC)nc(-c3ccc(OC)cc3)c2C#N)cc1 [5b, 4-(4-Methoxyphenyl)-6-((4-methoxyphenyl)amino)-2-(methylthio)pyrimidine-5-carbonitrile]
melting point: 238 to 240 °C | IC50 [1]: 46.3 ± 2.2 µM | IC50 [2]: 125 ± 6.82 µM

COc1ccc(-c2nc(SC)nc(Nc3ccc(Cl)cc3)c2C#N)cc1 [5c]
IC50 [1]: 5.82 ± 0.28 µM | IC50 [2]: 46.9 ± 2.55 µM

COc1ccc(-c2nc(SC)nc(Nc3ccc(Br)cc3)c2C#N)cc1 [5d, 4-((4-Bromophenyl)amino)-6-(4-methoxyphenyl)-2-(methylthio)pyrimidine-5-carbonitrile]
IC50 [1]: 5.52 ± 0.26 µM | IC50 [2]: 15.7 ± 0.85 µM

COc1ccc(-c2nc(SC)nc(NN=Cc3ccc(C)cc3)c2C#N)cc1 [7a, 4–(4-Methoxyphenyl)-6-(2-(4-methylbenzylidene)hydrazineyl)-2-(methylthio)pyrimidine-5-carbonitrile]
melting point: 246 to 248 °C | IC50 [1]: 22.8 ± 1.08 µM | IC50 [2]: 30.5 ± 1.66 µM

COc1ccc(C=NNc2nc(SC)nc(-c3ccc(OC)cc3)c2C#N)cc1 [7b, 4-(2-(4-Methoxybenzylidene)hydrazineyl)-6-(4-methoxyphenyl)-2-(methylthio)pyrimidine-5-carbonitrile]
melting point: 244 to 246 °C | IC50 [1]: 16.8 ± 0.8 µM | IC50 [2]: 22.9 ± 1.24 µM

COc1ccc(-c2nc(SC)nc(NN=Cc3ccc(Cl)cc3)c2C#N)cc1 [7c, 4-(2-(4-Chlorobenzylidene)hydrazineyl)-6-(4-methoxyphenyl)-2-(methylthio)pyrimidine-5-carbonitrile]
melting point: 266 to 268 °C | IC50 [1]: 3.76 ± 0.18 µM | IC50 [2]: 7.42 ± 0.4 µM

COc1ccc(-c2nc(SC)nc(NN=Cc3ccc(Br)cc3)c2C#N)cc1 [7d, 4-(2-(4-Bromobenzylidene)hydrazineyl)-6-(4-methoxyphenyl)-2-(methylthio)pyrimidine-5-carbonitrile]
melting point: 246 to 248 °C | IC50 [1]: 44.3 ± 2.1 µM | IC50 [2]: 56 ± 3.05 µM

COc1ccc(-c2nc(SC)nc(NN=Cc3ccc([N+](=O)[O-])cc3)c2C#N)cc1 [7e, 4–(4-Methoxyphenyl)-2-(methylthio)-6-(2-(4-nitrobenzylidene)hydrazineyl)pyrimidine-5-carbonitrile]
melting point: 248 to 250 °C | IC50 [1]: 5.36 ± 0.25 µM | IC50 [2]: 7.11 ± 0.39 µM

COc1ccc(-c2nc(SC)nc(NN=Cc3cc(OC)c(OC)c(OC)c3)c2C#N)cc1 [7f, 4-(4-Methoxyphenyl)-2-(methylthio)-6-(2-(3,4,5-trimethoxybenzylidene)hydrazineyl)pyrimidine-5-carbonitrile]
Western blot [OD] Cyclin D1 (Cyclin D1): 0.383 OD | Western blot [OD] p-AKT (p-AKT): 0.316 OD | Cell cycle analysis, Comment (K562 cells [5]; K562): Cell growth arrest at S phase | Increase in S-phase compared to the control (K562 cells [5]; K562): ~1.3 fold | Increase in cells in pre-G1 phase compared to the control (K562 cells [5]; K562): ~17 fold | DNA content % %G0-G1 (K562 cells [5]; [9]): 44.97% | DNA content % %Pre-G1 (K562 cells [5]; [9]): 31.72% | SI (selectivity index) [3]: 13.29 | IC50 [4]: 34.8 ± 2.11 µM | Western blot [OD] AKT (AKT): 0.402 OD | Western blot [OD] NFkb (NFkb): 0.402 OD | IC50 (PI3Kγ): 6.99 ± 0.36 µM | IC50 [1]: 2.62 ± 0.12 µM | IC50 (PI3Kδ): 4.01 ± 0.55 µM | LD50 at 14 d [6]: > 2000 mg/kg | Western blot [OD] p-PI3K (p-PI3K): 0.281 OD | Apoptosis% Early (K562 cells [7]): 3.19% | Apoptosis% Late (K562 cells [7]): 19.04% | Apoptosis% Total (K562 cells [7]): 31.72% | Necrosis (K562 cells [7]): 9.49% | Total increase of Annexin-V positive apoptotic cells compared to the control (K562 cells [7]): 17 fold | IC50 [2]: 3.22 ± 0.18 µM | Western blot [OD] PI3K (PI3K): 0.219 OD

O=c1cc(N2CCOCC2)oc2c(-c3ccccc3)cccc12 [LY294002, reference compound]
IC50 (PI3Kδ): 13.4 ± 0.67 µM

CN(C)CCn1cc(-c2ccc(F)c(C(F)(F)F)c2)nc1C1CCN(c2ncnc3c2CC(=O)N3)CC1 [LY2780301]
IC50 (AKT-1): 4.62 ± 0.24 µM

COc1ccc(-c2nc(N/N=C/c3c[nH]c4ccccc34)nc(N3CCOCC3)c2C#N)cc1 [VIII]
IC50 [8]: 10.9 µM

COc1ccc(-c2nc(SC)nc(NN)c2C#N)cc1 [compound 6, 4-Hydrazineyl-6-(4-methoxyphenyl)-2-(methylthio)pyrimidine-5-carbonitrile]
melting point: 270 to 272 °C | IC50 [1]: 6.67 ± 0.32 µM | IC50 [2]: 3.49 ± 0.19 µM
